According to ChEMBL document CHEMBL1811886 (J Med Chem, 2011):

Assays:
[1] = biological target: T1, Histamine H3 receptor (Rattus norvegicus, UniProt Q9QYN8); assay: Displacement of [3H]NAMH from rat histamine H3 receptor expressed in CHO cells; type: cell-based
[2] = Terminal half life in fasted Sprague-Dawley rat at 1 mg/kg, iv after 6 to 24 hrs by LC-MS/MS analysis; type: ADME, organism-based; design: dose 1 mg/kg, route intravenous; conditions: in vivo, read-out: beta t1/2 (converted)
[3] = Systemic clearance in fasted Sprague-Dawley rat at 1 mg/kg, iv after 6 to 24 hrs by LC-MS/MS analysis; type: ADME, organism-based; design: dose 1 mg/kg, route intravenous; conditions: in vivo
[4] = Ratio of drug uptake in brain to plasma of fasted Sprague-Dawley rat at 1 mg/kg, iv after 6 to 24 hrs by LC-MS/MS analysis; type: ADME, organism-based; design: dose 1 mg/kg, route intravenous; conditions: read-out: BPR
[5] = Oral bioavailability in fasted Sprague-Dawley rat at 5 mg/kg after 6 hrs by LC-MS/MS analysis; type: ADME, organism-based; conditions: in vivo
[6] = biological target: Voltage-gated inwardly rectifying potassium channel KCNH2 (Homo sapiens, UniProt Q12809); assay: Inhibition of recombinant human ERG channel expressed in human HEK 293 cells by patch clamp assay; type: cell-based, HEK293
[7] = Distribution coefficient log D of the compound at pH 7.4; type: physicochemical; conditions: octanol/water
[8] = Oral bioavailability in fasted Sprague-Dawley rat at 10 mg/kg after 24 hrs by LC-MS/MS analysis; type: ADME, organism-based; conditions: in vivo
[9] = biological target: T2, Histamine H3 receptor (Homo sapiens, UniProt Q9Y5N1); assay: Inverse agonist activity at human histamine H3 receptor assessed as inhibition of R-alpha-methylhistamine induced [35S]GTPgammaS binding; type: functional
[10] = biological target: T2, Histamine H3 receptor; assay: Displacement of [3H]NAMH from human histamine H3 receptor expressed in CHO cells; type: cell-based
[11] = biological target: T1, Histamine H3 receptor; assay: Inverse agonist activity at rat histamine H3 receptor assessed as inhibition of R-alpha-methylhistamine induced [35S]GTPgammaS binding; type: functional
[12] = biological target: T2, Histamine H3 receptor; assay: Antagonist activity against human histamine H3 receptor assessed as inhibition of R-alpha-methylhistamine induced [35S]GTPgammaS binding; type: functional
[13] = tested on: Rattus norvegicus; assay: Inhibition of RAMH-induced dipsogenia in Long Evans rat administered as po 15 mins prior to RAMH challenge; type: functional
[14] = biological target: Histamine H4 receptor (Homo sapiens) (UniProt Q9H3N8); assay: Inhibition of human histamine H4 receptor at 10 uM
[15] = biological target: Histamine H1 receptor (Homo sapiens) (UniProt P35367); assay: Inhibition of human histamine H1 receptor at 10 uM
[16] = biological target: Histamine H2 receptor (Homo sapiens) (UniProt P25021); assay: Inhibition of human histamine H2 receptor at 10 uM
Histamine H2 receptor (Homo sapiens), sequence (P25021 whole entry): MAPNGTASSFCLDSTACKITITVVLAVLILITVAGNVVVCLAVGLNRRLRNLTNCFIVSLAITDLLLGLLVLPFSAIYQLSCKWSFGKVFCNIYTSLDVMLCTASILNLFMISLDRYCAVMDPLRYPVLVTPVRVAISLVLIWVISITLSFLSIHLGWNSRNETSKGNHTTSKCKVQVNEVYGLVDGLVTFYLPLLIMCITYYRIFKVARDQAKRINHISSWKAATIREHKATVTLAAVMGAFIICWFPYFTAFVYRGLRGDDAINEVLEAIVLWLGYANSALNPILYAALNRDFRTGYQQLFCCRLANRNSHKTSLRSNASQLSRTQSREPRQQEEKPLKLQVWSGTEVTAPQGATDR

T2 sequence (Q9Y5N1 whole entry): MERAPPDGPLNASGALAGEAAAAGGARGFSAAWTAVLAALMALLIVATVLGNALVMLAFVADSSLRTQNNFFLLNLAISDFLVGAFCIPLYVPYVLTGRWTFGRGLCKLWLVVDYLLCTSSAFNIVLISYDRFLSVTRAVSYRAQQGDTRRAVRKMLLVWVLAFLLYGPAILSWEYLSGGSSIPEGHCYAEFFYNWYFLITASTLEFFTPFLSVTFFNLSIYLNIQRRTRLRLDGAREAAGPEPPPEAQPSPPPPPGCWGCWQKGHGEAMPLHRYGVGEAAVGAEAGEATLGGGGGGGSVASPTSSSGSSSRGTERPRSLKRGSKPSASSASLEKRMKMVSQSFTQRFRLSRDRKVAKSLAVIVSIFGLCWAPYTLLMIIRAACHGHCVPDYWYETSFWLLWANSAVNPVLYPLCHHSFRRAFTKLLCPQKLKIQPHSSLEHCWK
T1 sequence (Q9QYN8 whole entry): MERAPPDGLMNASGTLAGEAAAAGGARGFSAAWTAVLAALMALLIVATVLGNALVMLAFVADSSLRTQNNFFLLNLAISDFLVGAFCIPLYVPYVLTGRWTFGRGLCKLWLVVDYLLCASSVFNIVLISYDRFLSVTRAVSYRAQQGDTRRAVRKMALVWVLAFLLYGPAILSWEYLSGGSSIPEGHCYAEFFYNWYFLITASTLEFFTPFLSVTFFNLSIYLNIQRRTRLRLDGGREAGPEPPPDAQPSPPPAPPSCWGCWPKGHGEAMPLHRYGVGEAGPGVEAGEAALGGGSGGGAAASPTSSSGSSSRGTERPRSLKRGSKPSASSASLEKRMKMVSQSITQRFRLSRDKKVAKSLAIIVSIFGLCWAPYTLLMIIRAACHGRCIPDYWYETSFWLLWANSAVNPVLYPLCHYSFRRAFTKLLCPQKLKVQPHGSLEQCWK
Voltage-gated inwardly rectifying potassium channel KCNH2, sequence (Q12809 whole entry): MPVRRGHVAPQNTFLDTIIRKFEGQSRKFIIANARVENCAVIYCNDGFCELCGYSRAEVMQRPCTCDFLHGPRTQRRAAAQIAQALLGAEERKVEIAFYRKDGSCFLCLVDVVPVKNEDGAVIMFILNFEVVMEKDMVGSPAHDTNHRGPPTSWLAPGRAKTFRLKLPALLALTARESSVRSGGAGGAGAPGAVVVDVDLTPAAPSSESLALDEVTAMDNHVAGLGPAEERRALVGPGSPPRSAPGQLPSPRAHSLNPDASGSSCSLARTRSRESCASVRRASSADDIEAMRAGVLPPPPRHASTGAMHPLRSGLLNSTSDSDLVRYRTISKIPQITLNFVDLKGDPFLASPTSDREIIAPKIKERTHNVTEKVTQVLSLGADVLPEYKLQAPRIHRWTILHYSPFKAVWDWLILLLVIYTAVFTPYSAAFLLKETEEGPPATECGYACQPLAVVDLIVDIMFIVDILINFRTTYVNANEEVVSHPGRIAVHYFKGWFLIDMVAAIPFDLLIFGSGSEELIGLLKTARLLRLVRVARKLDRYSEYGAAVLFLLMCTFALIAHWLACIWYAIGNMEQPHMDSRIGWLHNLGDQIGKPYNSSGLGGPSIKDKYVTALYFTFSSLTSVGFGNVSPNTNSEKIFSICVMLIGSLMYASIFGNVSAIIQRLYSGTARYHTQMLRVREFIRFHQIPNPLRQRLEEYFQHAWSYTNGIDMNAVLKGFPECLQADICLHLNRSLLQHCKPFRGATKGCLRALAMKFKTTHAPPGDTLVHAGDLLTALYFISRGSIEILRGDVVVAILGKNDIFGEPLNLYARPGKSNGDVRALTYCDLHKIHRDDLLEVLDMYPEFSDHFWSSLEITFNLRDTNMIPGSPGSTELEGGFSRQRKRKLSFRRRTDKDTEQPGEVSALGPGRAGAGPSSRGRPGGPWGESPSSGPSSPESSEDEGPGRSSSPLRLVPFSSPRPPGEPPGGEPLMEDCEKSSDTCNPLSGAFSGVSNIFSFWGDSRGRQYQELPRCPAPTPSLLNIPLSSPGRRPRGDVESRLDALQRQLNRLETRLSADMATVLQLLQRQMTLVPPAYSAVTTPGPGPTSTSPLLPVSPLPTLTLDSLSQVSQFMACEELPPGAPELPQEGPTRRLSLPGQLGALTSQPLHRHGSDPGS
Histamine H1 receptor (Homo sapiens), sequence (P35367 whole entry): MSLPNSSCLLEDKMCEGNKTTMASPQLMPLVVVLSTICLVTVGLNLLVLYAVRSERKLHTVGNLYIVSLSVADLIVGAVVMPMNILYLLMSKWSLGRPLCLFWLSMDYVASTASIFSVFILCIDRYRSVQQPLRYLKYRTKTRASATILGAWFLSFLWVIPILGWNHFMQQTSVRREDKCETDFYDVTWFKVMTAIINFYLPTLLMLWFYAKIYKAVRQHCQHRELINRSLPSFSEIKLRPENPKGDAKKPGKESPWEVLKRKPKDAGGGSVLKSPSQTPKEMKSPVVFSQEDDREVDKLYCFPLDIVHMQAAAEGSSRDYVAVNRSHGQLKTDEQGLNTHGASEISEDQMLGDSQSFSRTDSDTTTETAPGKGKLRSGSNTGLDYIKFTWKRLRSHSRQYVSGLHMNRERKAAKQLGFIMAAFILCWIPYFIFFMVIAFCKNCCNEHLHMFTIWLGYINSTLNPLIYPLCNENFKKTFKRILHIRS

| SMILES | Ki [1] | half-life [2] | clearance [3] | Kp [4] | bioavailability [5] | logD [7] | bioavailability [8] | EC50 [9] | Ki [10] | EC50 [11] | Kb [12] | inhibition [14] | inhibition [15] | inhibition [16] | IC50 [6] | ED50 [13] |
| --- | --- | --- | --- | --- | --- | --- | --- | --- | --- | --- | --- | --- | --- | --- | --- | --- |
| Cn1nc(-c2ccc(OCCCN3CCC[C@H]3CO)cc2)ccc1=O | 48 nM | 1 h | 90 mL/min/kg | 1.4 | 43% | – | – | – | – | – | – | – | – | – | – | – |
| C[C@@H]1CCCN1CCCOc1ccc(-c2ccc(=O)n(-c3ccccc3)n2)cc1 | 7.9 nM | 2.1 h | 11.7 mL/min/kg | 6.2 | 10% | – | – | – | 2.5 nM | – | – | – | – | – | – | – |

More lines, main results first:

| Ki [1] | half-life [2] | clearance [3] | Kp [4] | bioavailability [5] | logD [7] | bioavailability [8] | EC50 [9] | Ki [10] | EC50 [11] | Kb [12] | inhibition [14] | inhibition [15] | inhibition [16] | SMILES | IC50 [6] | ED50 [13] |
| --- | --- | --- | --- | --- | --- | --- | --- | --- | --- | --- | --- | --- | --- | --- | --- | --- |
| 6.3 nM | 1.6 h | 45 mL/min/kg | 3.5 | – | 0.8 | 39% | 1 nM | 1.4 nM | 2.2 nM | 0.5 nM | – | – | – | C[C@@H]1CCCN1CCCOc1ccc(-c2ccc(=O)n(C)n2)cc1 | 13000 nM | 0.14 mg/kg |
| 45 nM | – | – | – | – | – | – | – | 16 nM | – | – | – | – | – | O=c1ccc(-c2ccc(OCCCN3CCCC3)cc2)n[nH]1 | – | – |
| – | – | – | – | – | – | – | – | – | – | 0.4 nM | < 11% | < 11% | < 11% | C[C@@H]1CCCN1CCCOc1ccc(-c2ccc(=O)[nH]n2)cc1 | – | – |
